According to patent US20230044633A1, “OPTICAL BASED METHODS FOR DETERMINING ANTIMICROBIAL DOSING REGIMENS” (University of Houston System, priority 2019, published 2023):
In brackets after ≈: the same amount, converted by molar mass.

Key:
[1] = tested on: A. baumannii 1261 (clinical isolate); experiment: Clinical isolate exposed to antibiotic concentration combinations in 4×4 array, tracked over 24 h on 216Dx; format: cell-based, Acinetobacter baumannii; conditions: clinical isolate of A. baumannii (multidrug resistant)
Experimental: FIG. 3. A. baumannii 1261 was exposed to 16 different concentration combinations of levofloxacin (L) and amikacin (A). Each sequence of points represents the time course of the bacterial population (baseline inoculum approximately 2-5×10^5 CFU/ml) exposed to one levofloxacin/amikacin concentration combination (e.g., levofloxacin 20 mg/l+amikacin 30 mg/ is shown in hollow squares). Bacteria exposed to drugs with no activity produce profiles that superimpose on those from placebo controls; antimicrobial activity manifests as a delay or absence of growth.
Ineffective antibiotics may have acceptable activity when combined. A clinical isolate of A. baumannii was exposed to different antibiotic concentration combinations in a 4×4 array, and the bacterial burden was tracked over 24 h using the prototype technical platform 216Dx. While the isolate is resistant to levofloxacin, amikacin and cefepime (multidrug resistant), bacterial growth was delayed in selected combinations (FIG. 3) and the profiles were reasonably captured by the mathematical modeling framework (1) shown above (FIG. 1, right).

[2] = tested on: Acinetobacter baumannii (AB), ATCC BAA747; experiment: Susceptibility (MIC); format: cell-based; conditions: ATCCBAA747, wild type AB ATCC BAA747, previously found
Experimental: Microorganism. A laboratory reference wild type Acinetobacter baumannii (AB), ATCC BAA747, was utilized in the study. The bacteria were stored at −70° C. in Protect® vials. Before the experiment, the bacteria were subcultured at least twice on 5% blood agar plates for 24 hours at 35° C. and fresh colonies were used.

MIC [2]	Compound	susceptibility phenotype of the isolate [1]
	NCC[C@H](O)C(=O)N[C@@H]1C[C@H](N)[C@@H](O[C@H]2O[C@H](CN)[C@@H](O)[C@H](O)[C@H]2O)[C@H](O)[C@H]1O[C@H]1O[C@H](CO)[C@@H](O)[C@H](N)[C@H]1O [amikacin]	resistant
	CO/N=C(\C(=O)N[C@@H]1C(=O)N2C(C(=O)[O-])=C(C[N+]3(C)CCCC3)CS[C@H]12)c1csc(N)n1 [cefepime]	resistant
0.25 µg/mL (≈ 0.692 µM)	C[C@H]1COc2c(N3CCN(C)CC3)c(F)cc3c(=O)c(C(=O)O)cn1c23 [LVX, Levofloxacin]	
